Data set [1] has as its system primary heart muscle cells from newborn rats. The data set can be described thus: Inhibitory activity on heart muscle cell apoptosis (serum-free culture, viable cell number by WST-8). The format is cell-based, Wister rats. To be noted: Rattus norvegicus, 96 h; mean of three independent experiments; concentration required to increase the mean viable cell number by 50% as compared with that in the absence of test compounds; serum-free Medium 199, 4 days. The source says:
Inhibitory Activity on Heart Muscle Cell Apoptosis
Newborn rats (within 1 day afterbirth) were obtained from pregnant Wister rats purchased from Charles River, anesthetized under ether, and sterilized with 70% ethanol, and then their hearts were excised with tweezers. The excised hearts were washed with a phosphate-buffered physiological saline (T900; Takara) and cut into pieces with surgical scissors. These tissue pieces were washed 4 to 5 times with a phosphate-buffered physiological saline to remove a majority of blood-derived non-heart muscle cells. To the tissue pieces derived from 10 newborns, 5 ml of enzyme solution (1.25 mg trypsin (Difco) and 0.25 mg collagenase (Sigma) per ml of phosphate-buffered saline (PBS)) was added and the mixture was stirred with a stirrer at 37° C. for 15 minutes. Another 2.5 ml enzyme solution was then added twice repeatedly at a 15-minutes interval. Then, Medium 199 (Gibco) containing 10% fetal calf serum (Biowiker) was added in a half volume of the enzyme solution to terminate the enzyme reaction. The cells were filtered through a Cell Strainer (Falcon) and then centrifuged at 400×g for 5 minutes, whereby the cells were collected.
The cells thus collected from 10 newborns were suspended in 50 ml Medium 199 containing 10% fetal calf serum, plated onto 100 mm Petri dishes (Iwaki) in a volume of 10 ml/dish and cultured for 1 hour in a CO2 incubator set at 5% CO2 and 37° C. The cells were then recovered, filtered through a Cell Strainer and centrifuged at 400×g for 5 minutes to collect the primary heart muscle cells derived from newborn rats.
Then, the heart muscle cells from 10 newborn rats were suspended in 2 ml low-isotonic solution (prepared by dissolving 8.29 g NH4Cl, 1.0 g KHCO3, 37 mg EDTA/2Na (ethylenediaminetetraacetic acid disodium) (Dojindo) in 1 L of water) and left for 3 minutes to disrupt erythrocytes. After 10 ml Medium 199 containing 10% fetal calf serum was added thereto, the primary heart muscle cells from newborn rats were collected by centrifugation at 400×g for 5 minutes. The cells were suspended in Medium 199 containing 10% fetal calf serum and then filtered through a cell strainer. After 0.3% trypan blue was added to, and mildly mixed with, an aliquot of the resulting cell suspension, the number of heart muscle cells was counted on an erythrocyte counting plate.
The primary heart muscle cells from newborn rats were suspended at a density of 3×10^6 cells/ml in Medium 199 containing 10% fetal calf serum, put onto a 96-well plate in a volume of 0.1 ml/well, and then cultured in a CO2 incubator set at 5% CO2 and 37° C. After the plate was stirred with a micromixer (Taiyo Kagaku Kogyo), the medium was exchanged 3 times with serum-free Medium 199, and then test compounds were added thereto. The cells were cultured for additional 4 days to induce apoptosis. Then, fetal calf serum was added thereto at a concentration of 10%, and the cells were further cultured for about 17 hours in a CO2 incubator set at 5% CO2 and 37° C. Finally, the number of viable cells was determined with Cell Counting Kit (Dojindo) using WST-8 (2-(2-methoxy-4-nitrophenyl)-3-(4-nitrophenyl)-5-(2,4-disulfophenyl)-2H-tetrazolium, monosodium salt) as the coloring substrate to determine the inhibition of the heart muscle cell apoptosis.
The above-mentioned experiment was triplicated in an independent manner.
The Mean minimal effective concentration (±SD) was shown for each test compound (Compounds 1 to 5 obtained in Reference Examples) in Table 1. In Table 1, the minimal effective concentration is defined as the concentration required to increase the mean viable cell number by 50% as compared with that in the absence of test compounds.
On the technique in general: Tetrazolium assays rely on reduction of a dye to a coloured formazan, in cell work by metabolically active cells.

For the molecule `CCOc1cccc(-c2nc(=O)c3ccccc3s2)n1` [Example 134, 2-(6-Ethoxy-2-pyridyl)-4H-1,3-benzothiazine-4-one], the melting point (as a rule, the temperature, or range, at which the solid turns liquid) lay in the range of 179.5 to 180 °C. For the same molecule, in data set [1], the minimal effective concentration (usually the lowest level tested that produced the effect sought) amounted to 0.095 µM.

Values taken from patent US7767665B2, “1,3-benzothiazinone derivatives and use thereof” (Takeda Pharmaceutical Company Limited, priority 2001, dated 2010).
